Test results published in patent US20060292221A1, “TIMED-RELEASE COMPRESSION-COATED SOLID COMPOSITION FOR ORAL ADMINISTRATION” (Astellas Pharma, Inc., priority 2000, published 2006).

Tests used:
[1] = Determination of percentage erosion of core tablet; assay type: physicochemical; conditions: 3 hours in water at 37° C.; for Percentage erosion (%) of compression-coated tablet containing Compound 1: core: 9 parts Compound 1 solid dispersion + 6 parts of the filler; for Percentage erosion (%) of compression-coated tablets containing acetaminophen: core: 5 parts acetaminophen + 10 parts of the filler
Procedure: A compression-coated tablet containing drug is made in accordance with the method of producing a timed-release compression-coated solid composition disclosed in the present invention, the tablet is moistened for 3 hours in water at 37° C., then the gelled part of the tablet is peeled off and the portion of the core tablet that has not eroded is removed. The core tablet is allowed to dry overnight in a dryer at 40° C. and weight is determined. The value obtained by subtracting dry weight from initial core tablet weight and dividing this by initial core weight is multiplied by 100 to calculate the percentage erosion.
The percentage erosion of the core tablet of both of the above-mentioned pharmaceutical preparations was determined in accordance with the previously described method of determining the percentage erosion of the core tablet.
Then 6 parts by weight of each filler were added to 9 parts by weight of the solid dispersion and mixed with a mortar and pestle. A core tablet of 150 mg per tablet with a diameter of 6.5 mm was obtained under compression force of 500 kg/punch using an oil press. Moreover, 10 parts by weight of each filler were separately added to 5 parts by weight acetaminophen (Yoshitomi Seiyaku) and mixed with a mortar and pestle and core tablets of 150 mg per tablet with a diameter of 6.5 mm were obtained under compression force of 500 kg/punch using an oil press. Furthermore, 75 mg polyethylene oxide (Polyox® WSR303) and 175 mg Macrogol 6000 were mixed with a mortar and pestle as the outer layer. […] This tablet was immersed for 3 hours in water at 37° C. and then the gelated part of the tablet was peeled off and the uneroded core was removed. The core was dried in a dryer overnight at 40° C. and then weighed. The percentage erosion of the core tablet was calculated from the dry weight and initial weight.

CYP3A4 [2] = test: Test Example 5: midazolam plasma concentration in dogs with concomitant Compound 1; conditions: Experiment 1, midazolam singular administration, oral 4 mg/dog, n=6
[3] = Solubility of each filler (amount of water needed to dissolve 1 g filler)
CYP3A4 [4] = test: Test Example 7: midazolam plasma concentration in dogs with concomitant ketoconazol; conditions: aqueous solution containing ketoconazol with midazolam

| Compound | Percentage erosion (%) of compression-coated tablet containing Compound 1 [1] [%] | Percentage erosion (%) of compression-coated tablets containing acetaminophen [1] [%] | further results |
| --- | --- | --- | --- |
| O=C(O)CC(O)(CC(=O)O)C(=O)O [Citric acid] | 60.3 | – | – |
| Cc1ncc2n1-c1ccc(Cl)cc1C(c1ccccc1F)=NC2 [Midazolam, midazolam] | – | – | Mean AUC of midazolam plasma concentration (CYP3A4 [2]): 9.0 ± 6.0 ngh/ml |
| O=C(O)/C=C/C(=O)O [Fumaric acid] | 2.0 | – | Solubility of filler ([3]; Table 3): > 10 mL |
| O=C(O)CC(O)C(=O)O (centres unmarked) [Malic acid] | 75.0 | 79.3 | Solubility of filler ([3]; Table 3): 2 mL; Solubility of filler ([3]; Table 4): 2 mL |
| OC[C@H]1O[C@@](CO)(O[C@H]2O[C@H](CO)[C@@H](O)[C@H](O)[C@H]2O)[C@@H](O)[C@@H]1O [Sucrose] | 48.4 | 56.1 | Solubility of filler ([3]; Table 3): 1 mL; Solubility of filler ([3]; Table 4): 1 mL |
| CC(=O)N1CCN(c2ccc(OCC3COC(Cn4ccnc4)(c4ccc(Cl)cc4Cl)O3)cc2)CC1 (centres unmarked) [ketoconazol] | – | – | increase of average midazolam AUC compared to midazolam singular administration (CYP3A4 [4]): ≤ 4 times |
| O=C(O)C(O)C(O)C(=O)O (centres unmarked) [Tartaric acid] | 65.7 | – | – |
| O=C1O[C@H]([C@@H](O)CO)C(O)=C1O [Ascorbic acid] | 32.4 | – | – |
| N[C@@H](CC(=O)O)C(=O)O [Aspartic acid] | 1.4 | – | – |
| OC[C@H]1O[C@@H](O[C@H]2[C@H](O)[C@@H](O)C(O)O[C@@H]2CO)[C@H](O)[C@@H](O)[C@H]1O (some centres unmarked) [Lactose] | 24.0 | 7.6 | – |
| O=C(O)CCC(=O)O [Succinic acid] | 19.2 | 12.8 | – |
